# From ChEMBL document CHEMBL1135279, “Design and synthesis of lignostilbene-alpha,beta-dioxygenase inhibitors” (Bioorg Med Chem Lett, 2002)
# Experiments:
# [1] = target: T1, Lignostilbene alpha, beta-dioxygenase (Sphingomonas paucimobilis, UniProt O87171); test: Inhibitory concentration against Lignostilbene-alpha, beta-dioxygenase (LSD) was determined in 2 mL of 50 mM […] buffer containing 4 microg enzyme/mL at 30 degree C
# T1 sequence (O87171 whole entry): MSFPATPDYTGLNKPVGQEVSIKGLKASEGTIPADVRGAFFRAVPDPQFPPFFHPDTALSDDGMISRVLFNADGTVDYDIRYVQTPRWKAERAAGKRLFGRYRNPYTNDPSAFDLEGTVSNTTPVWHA
# [2] = target: T1, Lignostilbene alpha, beta-dioxygenase; test: Tested for the inhibition of Lignostilbene-alpha, beta-dioxygenase (LSD)
# [3] = target: T1, Lignostilbene alpha, beta-dioxygenase; test: Inhibitory concentration against Lignostilbene alpha beta-dioxygenase (LSD) was determined in 2 mL of 50 mM […] buffer containing 4 microg enzyme/mL at 30 degree C
SMILES,IC50 [1] [µM],Ki [2] [µM],IC50 [3] [µM]
Oc1ccc(/C(F)=C/c2ccccc2)cc1,3,0.98,
C/C(=C\c1ccccc1)c1ccccc1,> 100,,
C/C(=C/c1ccccc1)c1ccccc1,,,22
C/C(=C/c1ccc(O)cc1)c1ccccc1,,,7
F/C(=C\c1ccccc1)c1ccccc1,> 100,,
C=C(C)c1ccc(O)cc1,12,,
C/C(=C\c1ccc(O)cc1)c1ccccc1,15,,
